What was measured:
[1] = tested on: chronic osteoarthritic knee joint pain; test: Randomized, double-blind, placebo-controlled single-dose human study: analgesic effect of intraarticular injection; type: in vivo; conditions: for mean (SD) absolute reduction of visual analog scale score, pain on motion: 6 months, VAS 0-100 mm, placebo 28.26
Protocol: In a human study, two pharmaceutical dosage forms according to the invention were used comprising Resiniferatoxin (100 or 400 ng) in an aqueous ethanolic solution additionally containing polysorbate 80 (Tween® 80) as surfactant, trometamol as buffer and a combination of NaCl, KCl, and CaCl2) as inorganic salts.
(§1) The primary objective of this study was to compare the analgesic effects of single intraarticular injections of Resiniferatoxin (100 or 400 ng) compared to placebo, at 3 and 6 months postinjection, in participants with chronic osteoarthritic knee joint pain. Secondary objectives were to evaluate the analgesic effects of Resiniferatoxin versus placebo in terms of a responder analysis (percentage of subjects achieving ≥50% or ≥70% reduction in visual analog scale pain score) and changes in Western Ontario and McMaster Universities Arthritis Index (WOMAC) total and subscale scores (pain, physical function and stiffness). Safety and injection site pain were also evaluated.
(§2) The study was conducted as a randomized, double-blind, placebo-controlled, single-dose trial of Resiniferatoxin. Eligible patients were aged 40 to 80 years with radiographic knee osteoarthritis (Kellgren-Lawrence Grade 2-4 in the last 3 years) and a baseline visual analog scale (0-100 mm) pain score ≥40 mm on motion in the target knee, with or without pain medication. 67 subjects were randomized to treatment with either Resiniferatoxin 100 ng (n=24) or 400 ng (n=23), or placebo (n=20), administered intraarticularly into the index knee. Intraarticular Ropivacaine (5 ml, 0.5%) was administered 15 mins before investigational medicinal product. Visual analog scale scores were used to evaluate pain on motion as the average of the last 2 days in a target knee between baseline and at 3 and 6 months post injection. Injection site pain was rated (visual analog scale) from baseline (−0.5 h) up to 3 h post intraarticular injections.

[2] = Human study: safety and injection site pain after intraarticular injection; type: in vivo; conditions: for subjects with severe adverse events: none related to investigational medicinal product; for incidence of treatment emergent adverse events: placebo 75.0%
Protocol: as §1, §2

[3] = Comparative study in rats: knee tissue concentrations after intraarticular dosing; type: in vivo; conditions: male, rat, knee tissues, across the three formulations
Protocol: (§3) Animals: 63 male rats (21 rats per formulation; plus an additional 3 animals as a replacement). Body weight: average 263 g (236-295 g). Dose (IA): ˜36.6 ng/kg=>9.6 ng/knee as an injection of 30 μL/knee of three various formulations with concentration 320 ng/mL. PK sampling: 7 timepoints: 10 min (animals not fully conscious between dosing and sampling), 20 min, 30 min, 1 h, 1.5 h, 2 h and 4 h (one sample per rat; 3 rats per timepoint) in plasma and synovial fluid. Tissue samples: at same time points as PK samples following tissue samples: meniscus, patella, femoral head and tibial plateau.

[4] = Comparative study in rats: synovial fluid pharmacokinetics after intraarticular dosing; type: in vivo; conditions: male, rat, 9.6 ng, across the three formulations
Protocol: as §3
Sampling of synovial fluid: A 0.5 ml 28G Insulin syringes (fixed needle, no hub) were filled with 100 μl of the saline/EDTA solution. The skin was removed from the joint and then the needle was inserted through the patellar tendon into the joint space. The solution was then injected into the joint space, the knee was flexed a couple/few times (all with the needle still in the joint) and then was pulled back on the plunger to collected the mix of saline/EDTA and synovial fluid. The lavage fluid was then put into a microcentrifuge tube, it was spun to pellet any cells/debris and then the supernatant was collected.

[5] = tested on: naturally-occurring canine osteoarthritis; conditions: single intraarticular injection of 10 μg; 7 dogs with osteoarthritis; cited from earlier work
[6] = tested on: moderate to severe pain due to osteoarthritis of the knee; conditions: cited from earlier work
[7] = single intraarticular doses 100 ng or 400 ng

## C=C(C)[C@]12C[C@@H](C)[C@@]34O[C@](Cc5ccccc5)(O[C@@H]1[C@@H]3C=C(COC(=O)Cc1ccc(O)c(OC)c1)C[C@]1(O)C(=O)C(C)=C[C@@H]41)O2 [Resiniferatoxin, 4-hydroxy-3-methoxy-benzeneacetic acid, [(2S,3aR,3bS,6aR,9aR,9bR, 10R,11aR)-3a, 3b, 6,6a, 9a,10,11,11a-octahydro-6a-hydroxy-8,10-dimethyl-11a-(1-methylethenyl)-7-oxo-2-(phenylmethyl)-7H-2,9b-epoxyazuleno[5,4-e]-1,3-benzodioxol-5-yl]methyl ester]
[1]; 100 ng and 400 ng groups, at both 3 and 6 months
  reduction in WOMAC total and subscale scores (pain, physical function and stiffness) versus placebo: greater reduction
[1]; 100 ng single intraarticular injection
  mean (SD) absolute reduction of visual analog scale score, pain on motion: 33.52 (22.89)
[1]; 400 ng single intraarticular injection
  mean (SD) absolute reduction of visual analog scale score, pain on motion: 41.48 (32.57)
[1]; [7]
  analgesia evident during the follow-up period: at least 3 months
  analgesic onset after administration: within one week
[2]; 100 ng group (n=24)
  subjects with severe adverse events: 2 subjects
[2]; 100 ng group
  incidence of treatment emergent adverse events: 62.5%
[2]; 400 ng group (n=23)
  subjects with severe adverse events: 3 subjects
[2]; 400 ng group
  incidence of treatment emergent adverse events: 78.3%
[2]; intraarticular, 100 or 400 ng, VAS up to 3 h post injection
  injection site pain (procedural pain) compared to placebo: generally higher
[2]; moderate-severe intensity in some subjects
  time of peak injection site pain post-injection: around 0.5 h
[2]; post-injection
  injection site pain return to baseline: ≤ 3 h
[2]; [7]
  safety profile and tolerability: good safety profile
[3]; 9.6 ng, read-out: half-life in the tissues (converted)
  half-life: ~1.5 h
[3]; other: intraarticular, 9.6 ng/knee, read-out: half-life in the tissues (converted)
  half-life: ~1.5 h
[3]; other: intraarticular, 9.6 ng/knee, read-out: half-life in the tissues (range)
  half-life: 0.895 to 3.21 h
[4]; read-out: half-life in SF (converted)
  half-life: ~1.5 h
[4]; read-out: half-life in SF (range)
  half-life: 1.07 to 1.85 h
[5]
  analgesic effect: significant and prolonged analgesic effect
[6]; one-time intraarticular dose 5-30 μg
  sustained pain relief (anecdotal long-term follow up): > 365 days
[6]; up to the planned highest dose of 30 μg
  safety as onetime intraarticular injection: demonstrated safety

— patent US20250228765A1, “TREATING KNEE JOINT PAIN BY INJECTING RESIN[…] ULTRA LOW DOSES” (Gruenenthal GmbH, priority 2024, published 2025)
